Experimental data taken from patent US20030061671A1, “Thioxanthone dyes with improved solubility and a method of preparing 2-oxybenzanthrones as intermediate materials for making of these dyes” (priority 2001, published 2003).
Read-outs that look alike come from different tables or passages of the source.

Legend:
[1] = Solubility comparison in chloroform (chloroform added to 0.1 g dye until full solubility); format: physicochemical
Procedure: Solubility Comparison of the Claimed compound and the Prototype
Two mixtures were prepared for comparison. The first one contained a dye prepared as per Example 1 by taking 0.1 g of the dye and adding chloroform until full solubility. The second mixture was prepared using 0.1 g of 6-methoxy-14H-anthra(2,1,9-mna)thioxanthene-14-one dye and also adding chloroform until its full solubility. At the end, 30 ml of chloroform was required to solute 0.1 g of the dye in the first mixture while 120 ml of the chloroform was required to solute the same amount of dye in case of the prototype.

[2] = colorant described by Carlini et al.; cited from earlier work

6-n-Octyloxy-14H-anthra(2,1,9 mna)thioxanthene-14-one [Example 1]
chloroform required to solute 0.1 g of the dye ([1]; 0.1 g dye, chloroform added until full solubility): 30 mL
improvement in solubility in chloroform versus prototype ([1]; claimed dye vs 6-methoxy prototype, chloroform): four-fold

COc1cc2c3ccccc3c(=O)c3ccc4c5ccccc5sc1c4c32 [6-methoxy-14H-anthra(2,1,9-mna)thioxanthene-14-one]
chloroform required to solute 0.1 g of the dye [1]: 120 mL
solubility in organic solvents and polymer materials [2]: poorly soluble
